Reference: patent US20140341916A1, “THERAPEUTIC COMBINATIONS AND METHODS OF TREATING MELANOMA” (Genentech, Inc., priority 2011, published 2014)

Columns and labels:
ETBR transcript = assay: PD study, ETBR transcript in COLO 829 tumors, Taqman, normalized to GAPDH; format: in vivo, mice; settings: RG7204 10 mpk or 30 mpk twice a day for 3 days
Protocol: (§1) A2058 or COLO 829 tumors were grown to an average size of approximately 200 mm^3, whereupon animals were randomized into groups of 5-6 each. For the BRAFi PD study, an appropriate vehicle control (Klucel LF) or RG7204 at doses of 10 mpk or 30 mpk were administered twice a day for 3 days (FIG. 27A). For the MEKi PD study, an appropriate vehicle control or MEKi-973 at doses of 5 mpk and 10 mpk were administered orally once a day for 3 days (FIG. 27B). Flash frozen tumors harvested at end of study were homogenized and processed for RNA and/or protein. Taqman assays were set up using reagents from Applied Biosystems (ABI, Foster City, Calif.) and assayed using 7500 Real Time PCR machine and software from ABI. Primer-probe sets were designed with primers flanking a fluorogenic probe dual labeled with Reporter dye FAM and quencher dye TAMRA. ETBR transcript levels in the tumors were normalized against transcript levels of reference genes such as Hprt1 (hypoxanthine phosphoribosyltransferase 1) or GAPDH (glyceraldehyde 3 phosphate dehydrogenase) using primer and probe sets that were specific to the human homologs of these genes.

phosphor-ERK = assay: Phospho-ERK in melanoma cells, Western blot; format: cell-based, human; settings: IPC-298 cells (BRAF wild-type, RAS Q61L), 24 h
Protocol: Melanoma cell lines UACC-257X2.2, A2058, COLO 829, IPC-298 (ATCC) were treated with a BRAF inhibitor drug (“BRAFi”), specifically RG7204 at varying concentrations by adding the appropriate drug volume to cells in culture for 24 h on four-well dishes.
To test whether the increase in ETBR transcripts due to BRAFi treatment also results in any changes in ETBR total protein levels, Western blot experiments were performed on the same cell lines treated with BRAFi RG7204 as described above. For Western blotting, the following reagents were used: for detection of proteins: an anti-ETBR in-house generated monoclonal antibody 1H1.8.5, anti-Phospho-p44/42 MAPK (Erk1/2) (Thr202/Tyr204) antibody (9101, Cell Signaling Technology), anti-p44/42 MAPK (Erk1/2) antibody (9102, Cell Signaling Technology) and as controls, a rabbit polyclonal anti-GAPDH (glyceraldehyde-3-phosphate dehydrogenase) antibody (PA1-987; Affinity Bioreagents) and mouse monoclonal anti-β-Tubulin antibody (556321, BD Pharmingen). The results for UACC-257X2.2 are shown in FIG. 4B, the results for A2058 are shown in FIG. 8B, the results for COLO 829 are shown in FIG. 6B and the results for IPC-298 are shown in FIG. 10.

Phosphorylated erk = assay: PD study, phosphorylated erk in COLO 829 tumors, Western blot; format: in vivo, mice; settings: 30 mpk BRAFi RG7204
Protocol: as §1, with “ETBR transcript levels in the tumors were normalized against transcript levels of reference genes such as Hprt1 (hypoxanthine phosphoribosyltransferase 1) or GAPDH (glyceraldehyde 3 phosphate dehydrogenase) using primer and probe sets that were specific to the human homologs of these genes.” left out
Phosphorylated erk and total erk protein levels were evaluated in the tumors by western blotting using the following reagents: for detection of proteins: anti-Phospho-p44/42 MAPK (Erk1/2) (Thr202/Tyr204) antibody (9101, Cell Signaling Technology), anti-p44/42 MAPK (Erk1/2) antibody (9102, Cell Signaling Technology) and mouse monoclonal anti-β-Tubulin antibody (556321, BD Pharmingen) as control (FIG. 26).

A2058 melanoma xenograft = assay: In vivo efficacy, subcutaneous melanoma xenograft, tumor volume / % TGI; set-up: species or system mice; settings: for % TGI Single Agent BRAFi vs. control: A2058
Protocol: Next, efficacy studies were performed using the melanoma cells lines in the xenografts mouse models described above. All studies were conducted in accordance with the Guide for the Care and Use of Laboratory Animals (Ref: Institute of Laboratory Animal Resources (NIH publication no. 85-23), Washington, D.C.: National Academies Press; 1996). 10- to 14-week-old female CRL Nu/Nu or NCr nude mice from Charles River Laboratories were inoculated subcutaneously in the dorsal right flank with either 5×10^6 UACC-257X2.2 cells in HBSS with Matrigel or 5×10^6 A2058 cells in HBSS with Matrigel. When tumor volumes reached approximately 200 mm^3 (day 0), animals were randomized into groups of 10 each.
For single agent efficacy studies, the anti-ETBR ADC candidate Hu5E9v1-ADC was administered as a single intravenous (IV) injection on day 0 at 1 mpk, 3 mpk, or 6 mpk (mg/kg). A control ADC antibody and vehicle control were also administered. Average tumor volumes with standard deviations were determined from 10 animals per group. Tumor volumes were measured twice per week until study end.
The average tumor volumes were determined from 10 animals per group. Tumor volumes were measured twice per week until study end. Tumor volumes were measured in two dimensions (length and width) using UltraCal IV calipers (Model 54 10 111, Fred V. Fowler Company; Newton, Mass.). The following formula was used with Excel, version 12.2.8 (Microsoft; Redmond, Wash.) to calculate tumor volume: Tumor Volume (mm3)=[…]
To analyze the repeated measurement of tumor volumes from the same animals over time, a mixed-modeling Linear Mixed Effects (LME) approach was used (Pinheiro et al. 2009). This approach can address both repeated measurements and a modest drop-out rate due to non-treatment-related termination of animals prior to study end. Cubic regression splines were used to fit a non-linear profile to the time courses of log 2 tumor volume at each dose level. These non-linear profiles were then related to dose within the mixed model. Tumor growth inhibition (TGI) as a percentage of vehicle was calculated as percent area under the fitted curve (AUC) per day in relation to the vehicle, using the following formula:
Using this formula, a TGI value of 100% indicates tumor stasis, of >1% but <100% indicates tumor growth delay, and of >100% indicates tumor regression. To get uncertainty intervals (UIs) for % TGI, the fitted curve and the fitted covariance matrix were used to generate a random sample as an approximation to the distribution of % TGI. The random sample is composed of 1000 simulated realizations of the fitted-mixed model, where the % TGI has been recalculated for each realization. Here, in the reported UI is the value for which 95% of the time, the recalculated values of % TGI will fall in this region given the fitted model. The 2.5 and 97.5 percentiles of the simulated distribution were used as the […] UIs.
Tumors were grown to an average size of approximately 200 mm^3, whereupon animals were randomized into groups of 10 each. […] A single dose of Hu5E9v1-ADC at either 3 mpk or 6 mpk or control, a histidine buffer #8, was administered intraveneously into the tail vein on day 1 (after three doses of RG7204).
To do this, the in vivo efficacy for various combinations of Hu5E9v1-ADC and MEKi-623 and/or MEKi-973 were evaluated against A2058 and SK-MEL-23 and IPC-298 melanoma in vivo models, performed as described above in Example 4. An appropriate methylcellulose tween vehicle control (0.5% methylcellulose, 0.2% Tween-80 (MCT) or MEK inhibitor at doses of 1 mpk, 3 mpk or 7.5 mpk were administered orally once a day×21 days beginning on study Day 0. A single 3 mpk or 6 mpk dose of Hu5E9v1-ADC or control, a histidine buffer #8, was administered intraveneously (after two doses of a MEK inhibitor) via tail vein at study Day 1.

CCCS(=O)(=O)Nc1ccc(F)c(C(=O)c2c[nH]c3ncc(-c4ccc(Cl)cc4)cc23)c1F [RG7204, propane-1-sulfonic acid {3-[5-(4-chlorophenyl)-1H-pyrrolo[2,3-b]pyridine-3-carbonyl]-2,4-difluoro-phenyl}-amide]
ETBR mRNA in tumors vs control vehicle (ETBR transcript): induces ETBR mRNA in vivo
phosphor-ERK level (phosphor-ERK): appears to activate the levels of phosphor-ERK
Perk in tumors vs control (Phosphorylated erk): appears to inhibit Perk in vivo
single agent efficacy (A2058 melanoma xenograft; 10 mg/kg RG7204 alone, orally twice a day 21 days): did not show single agent efficacy
% TGI Single Agent BRAFi vs. control (A2058 melanoma xenograft; BRAFi Qdx21 10 mg/kg): 13%
% TGI Single Agent BRAFi vs. control (A2058 melanoma xenograft; BRAFi Qdx21 30 mg/kg): 38%
